Data on one molecule can be found in patent US20250092345A1, “INTER ORGAN PLATFORM FOR MICROPHYSIOLOGICAL SYSTEM ON A CHIP” (THE TRUSTEES OF COLUMBIA UNIVERSITY IN THE CITY OF NEW YORK, priority 2020, published 2025).

The test system of data set [1] is metastatic TE-ES (SK-N-MC). Put plainly: Metastatic engineered ES bone tumor (TE-ES) in isolated culture, linsitinib. The class given is cell-based, human. The settings on record: 12 μM. The text has this:
(§1) The effects of linsitinib were studied in an experiment performed according to the 3-week treatment cycle used in the clinical trial (3 days of drug administration followed by 4 days without the drug, in 3 cycles), with luminescence signal serving as an indicator of cancer cell viability within the TE-ES.
(§2) Determining the effects of linsitinib on ES cells and osteoblasts within the engineered ES bone tumors across a 3-week clinical drug treatment regimen is shown in FIGS. 33A-33B. […] Supernatants were collected from each individual sample across the duration of the drug treatments and were analyzed for osteoblast function (OCN, OPN) and for cytotoxicity (LDH) (mean±s.e.m., n=3).
(§3) Two weeks following the initiation of osteogenic differentiation, aggregates of ES tumor cells were prepared as described previously, using 0.3×10^6 cells per aggregate. After 1 week of culture, corresponding to the end of bone tissue culture (3 weeks), the primary ES cell aggregates were placed into the engineered bone constructs (3 aggregates per construct, placed apart of each other). Tumor models were established for two different types of primary ES cells: non-metastatic (RD-ES) and metastatic (SK-N-MC). Tissue engineered RD-ES and SK-N-MC tumors were cultured in the RPMI and EMEM media, respectively, supplemented with 10% FBS and 1% penicillin/streptomycin. Bone constructs cultured without tumor cell aggregates (TE-bone) in RPMI and EMEM media were used as controls.
(§4) Specifically, linsitinib was dissolved at a 10 mM concentration in DMSO (Corning) and mixed in with the respective cell medium at a […] concentration unless otherwise noted. Vehicle treatments involved just the addition of DMSO at identical volumes as a control. Tissues were randomly assigned to experimental groups. Medium was changed every day.
(§5) Cell viability was analyzed using a previously established protocol. Cancer cell viability was measured for GFP-Luciferase labelled cancer cells using ONE-Glo luciferase substrate that was prepared according to manufacturer's protocol (Promega). Samples were collected following 3, 7, and 21 days cycles of linsitinib treatment. Where noted, longitudinal cell viability was also assessed using luminescence, though at the cost of signal strength. Briefly, in vivo grade VivoGlo™ Luciferin (Promega) was made at a 200× stock concentration (30 mg/ml) in water, added to sample culture media at a 1:200 dilution, and scanned using a spectrophotometer (Biotek). Some of the IC50 values were determined using cell viability data generated using an MTT assay (RealTime-Glo™ MT Cell Viability Assay, Promega) that were analyzed according to manufacturer's protocol.
Osteocalcin (OCN), osteopontin (OPN), and lactic acid dehydrogenase (LDH) secreted levels were all measured using a similar approach. […] LDH secretion was determined using a Lactate Dehydrogenase Assay Kit (Colorimetric; Abcam).

Data set [2] deals with non-metastatic TE-ES (RD-ES). The experiment in a line: Non-metastatic engineered ES bone tumor (TE-ES) in isolated culture, linsitinib. The class given is cell-based, human.
Source text: as §1, §2, §3, §4
To assess apoptosis, paraffin embedded tissue sections were first deparaffinized with CitriSolv, rehydrated with graded series of ethanol washes, and then stained with a Click-iT® TUNEL Alexa Fluor® imaging assay (Thermo Fisher Scientific). Following nuclear counterstaining with DAPI (Life Technologies), the TUNEL labelled slides were imaged with an IX81 inverted fluorescent microscope (Olympus) and a Pike F032B camera (ALLIED Vision), using NIS-Elements AR software, and processed using ImageJ (NIH). Four representative images per condition were then analyzed using the previously developed automatic TUNEL cell counter plugin for ImageJ to quantify DAPI^+ cells and TUNEL^+ cells.
as §5
Osteocalcin (OCN), osteopontin (OPN), and lactic acid dehydrogenase (LDH) secreted levels were all measured using a similar approach.

With `C[C@]1(O)C[C@@H](c2nc(-c3ccc4ccc(-c5ccccc5)nc4c3)c3c(N)nccn32)C1` [linsitinib], the “cytotoxicity (LDH secretion)” value in data set [1] (3-week regimen) is listed as “spiked”; in data set [2] (12 μM, 3-week regimen), “spiked in both models immediately following drug administration, but significantly more so in the responsive, non-metastatic ES model”. Besides, the osteocalcin secretion result in data set [1] (3-week regimen) was “decreased”; in data set [2] (12 μM, 3-week regimen) it was “decreased”. The “cancer cell population (luminescence) across the clinical regimen” value in data set [1] (21-day treatment regimen) is “decrease in drug efficacy, as the cancer cell population continued to expand”; in data set [2] (12 μM, 21-day treatment regimen) it was “initial decrease in cancer cell population in the non-metastatic model and this population appeared unable to continue expanding”. Besides, the “drug response (luminescence)” value in data set [1] (after 3 days) was “significant drug response”; in data set [2] (12 μM, after 3 days), “significant drug response”. For the same molecule, the osteopontin secretion result in data set [1] (throughout the 21 days) is recorded as “decreased”; in data set [2] (12 μM, throughout the 21 days), “significantly increased”. The “response of cell viability (luminescence) to concentration” value in data set [2] (0, 1.2, 12 and 120 μM, 72 hours) was “dose-dependent response”. Moreover, the “apoptosis (TUNEL assay)” value in data set [2] (12 μM) is on record as “increases in apoptosis”. In addition, the “cell viability (luminescence)” value in data set [2] (12 μM) is on record as “significant reduction”. Besides, the OCN secretion entry in data set [2] (12 μM regimen, 1:1 mixed media) is reported as “increased only slightly”. In addition, in data set [2] (12 μM regimen, 1:1 mixed media), the “cancer cell population level maintained (luminescence)” value was ~30 % of their starting population. Also, the “drug response of ES resistant-cell derived tumors (luminescence)” value in data set [2] (second 21-day 12 μM regimen on tumors from sorted resistant cells) is “significant initial drug response”.
